Reference: ChEMBL document CHEMBL5465560, “Selectivity Literature for EUbOPEN Chemogenomic Library” (2024)

Tests used:
[1] = target: T1, Mitogen-activated protein kinase kinase kinase 6 (Homo sapiens) (UniProt O95382); assay: Selectivity interaction (ActivX KiNativ screen (ex vivo kinase selectivity in human PBMCs)) EUB0001619a MAP3K6; assay type: cell-based; settings: PBMC, at 1 µM
T1 sequence (whole entry): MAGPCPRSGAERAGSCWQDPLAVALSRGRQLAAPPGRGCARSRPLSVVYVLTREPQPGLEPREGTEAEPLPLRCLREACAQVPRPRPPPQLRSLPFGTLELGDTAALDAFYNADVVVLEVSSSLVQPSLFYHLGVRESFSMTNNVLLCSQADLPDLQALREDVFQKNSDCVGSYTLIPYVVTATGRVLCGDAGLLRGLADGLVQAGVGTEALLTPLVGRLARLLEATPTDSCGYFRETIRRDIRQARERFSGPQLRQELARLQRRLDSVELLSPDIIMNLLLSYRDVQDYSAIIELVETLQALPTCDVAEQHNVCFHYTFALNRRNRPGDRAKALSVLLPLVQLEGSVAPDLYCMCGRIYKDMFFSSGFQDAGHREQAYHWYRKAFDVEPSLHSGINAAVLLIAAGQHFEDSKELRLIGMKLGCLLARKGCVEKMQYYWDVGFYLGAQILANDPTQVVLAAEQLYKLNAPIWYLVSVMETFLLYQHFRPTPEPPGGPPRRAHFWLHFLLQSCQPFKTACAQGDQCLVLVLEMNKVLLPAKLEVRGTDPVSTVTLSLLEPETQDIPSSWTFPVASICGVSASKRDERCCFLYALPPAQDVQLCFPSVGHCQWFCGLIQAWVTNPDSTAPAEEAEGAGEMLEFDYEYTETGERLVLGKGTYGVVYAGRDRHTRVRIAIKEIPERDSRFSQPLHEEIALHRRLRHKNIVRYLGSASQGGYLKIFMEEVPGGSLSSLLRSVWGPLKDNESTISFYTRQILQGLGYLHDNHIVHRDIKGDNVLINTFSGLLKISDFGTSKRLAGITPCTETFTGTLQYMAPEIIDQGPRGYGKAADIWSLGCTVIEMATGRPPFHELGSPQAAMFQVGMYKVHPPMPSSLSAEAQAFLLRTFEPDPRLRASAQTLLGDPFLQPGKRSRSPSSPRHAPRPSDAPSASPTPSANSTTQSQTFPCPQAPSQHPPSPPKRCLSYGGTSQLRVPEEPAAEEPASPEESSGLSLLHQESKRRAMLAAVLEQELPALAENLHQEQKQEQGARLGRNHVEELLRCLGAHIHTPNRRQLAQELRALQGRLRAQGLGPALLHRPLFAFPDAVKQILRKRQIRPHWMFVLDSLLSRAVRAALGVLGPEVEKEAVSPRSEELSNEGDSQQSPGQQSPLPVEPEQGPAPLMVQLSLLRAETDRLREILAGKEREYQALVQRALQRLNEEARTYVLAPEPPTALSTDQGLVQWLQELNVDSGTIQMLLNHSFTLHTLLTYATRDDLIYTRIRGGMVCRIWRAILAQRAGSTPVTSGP

[2] = target: Tyrosine-protein kinase Lyn (Homo sapiens, UniProt P07948); assay: Selectivity interaction (ActivX KiNativ screen (kinase selectivity in THP-1 cell lysates)) EUB0000639a LYN; assay type: subcellular; settings: lysate, at 1 µM
[3] = target: T2, Ephrin type-B receptor 1 (Homo sapiens) (UniProt P54762); assay: Selectivity interaction (ActivX KiNativ screen (kinase selectivity in THP-1 cell lysates)) EUB0000639a EPHB1; assay type: subcellular; settings: lysate
T2 sequence (whole entry): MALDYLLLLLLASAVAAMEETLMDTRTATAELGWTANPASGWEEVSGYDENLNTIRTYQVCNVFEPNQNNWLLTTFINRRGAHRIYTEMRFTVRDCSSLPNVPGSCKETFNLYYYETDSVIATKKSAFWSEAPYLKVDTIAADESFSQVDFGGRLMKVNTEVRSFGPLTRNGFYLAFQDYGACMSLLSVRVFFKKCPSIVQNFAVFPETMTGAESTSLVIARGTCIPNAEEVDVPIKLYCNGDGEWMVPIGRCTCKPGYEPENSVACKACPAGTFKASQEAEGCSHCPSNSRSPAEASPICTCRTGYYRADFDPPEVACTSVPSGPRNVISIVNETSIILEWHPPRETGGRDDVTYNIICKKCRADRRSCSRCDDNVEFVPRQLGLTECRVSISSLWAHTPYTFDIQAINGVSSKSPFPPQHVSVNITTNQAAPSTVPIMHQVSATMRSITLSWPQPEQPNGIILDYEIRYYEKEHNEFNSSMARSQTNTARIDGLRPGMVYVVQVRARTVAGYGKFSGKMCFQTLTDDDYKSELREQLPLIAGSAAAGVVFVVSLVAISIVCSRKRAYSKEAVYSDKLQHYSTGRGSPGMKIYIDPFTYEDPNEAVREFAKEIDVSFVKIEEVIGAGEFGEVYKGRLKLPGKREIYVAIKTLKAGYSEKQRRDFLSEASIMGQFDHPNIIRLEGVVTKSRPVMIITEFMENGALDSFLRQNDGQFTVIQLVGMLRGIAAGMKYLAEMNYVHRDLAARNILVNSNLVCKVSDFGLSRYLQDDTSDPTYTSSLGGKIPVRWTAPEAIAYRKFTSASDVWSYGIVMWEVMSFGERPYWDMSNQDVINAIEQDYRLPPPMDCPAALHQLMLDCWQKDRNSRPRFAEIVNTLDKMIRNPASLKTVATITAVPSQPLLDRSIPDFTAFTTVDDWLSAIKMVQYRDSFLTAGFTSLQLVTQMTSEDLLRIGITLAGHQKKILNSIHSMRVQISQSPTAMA

[4] = target: Cyclin-dependent kinase 4 (Homo sapiens, UniProt P11802); assay: Selectivity interaction (KinomeScan (DiscoverX)) EUB0000229b CDK4; settings: at 10 µM
Chain of Cyclin-dependent kinase 4 (P11802 whole entry): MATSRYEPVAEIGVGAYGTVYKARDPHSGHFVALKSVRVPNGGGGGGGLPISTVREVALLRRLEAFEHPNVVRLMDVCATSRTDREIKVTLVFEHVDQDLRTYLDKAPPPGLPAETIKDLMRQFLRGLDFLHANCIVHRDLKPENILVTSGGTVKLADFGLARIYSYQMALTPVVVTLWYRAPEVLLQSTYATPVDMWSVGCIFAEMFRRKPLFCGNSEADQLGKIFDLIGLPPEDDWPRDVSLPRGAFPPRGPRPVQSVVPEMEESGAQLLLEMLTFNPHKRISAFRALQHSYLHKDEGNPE

Chain of Tyrosine-protein kinase Lyn (P07948 2-512 limits assumed): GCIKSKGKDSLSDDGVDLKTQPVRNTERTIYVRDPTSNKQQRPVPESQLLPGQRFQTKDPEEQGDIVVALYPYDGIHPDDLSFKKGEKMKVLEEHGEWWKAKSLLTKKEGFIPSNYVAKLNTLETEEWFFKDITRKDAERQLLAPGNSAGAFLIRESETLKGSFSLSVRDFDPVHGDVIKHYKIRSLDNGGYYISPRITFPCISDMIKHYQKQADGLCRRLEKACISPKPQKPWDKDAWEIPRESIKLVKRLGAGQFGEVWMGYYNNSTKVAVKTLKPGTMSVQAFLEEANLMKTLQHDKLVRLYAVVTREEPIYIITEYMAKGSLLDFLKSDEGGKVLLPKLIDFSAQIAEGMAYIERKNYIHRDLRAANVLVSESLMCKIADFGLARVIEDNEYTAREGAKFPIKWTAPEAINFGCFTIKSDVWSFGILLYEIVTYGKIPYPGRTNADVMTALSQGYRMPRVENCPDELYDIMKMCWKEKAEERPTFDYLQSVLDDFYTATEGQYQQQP

N#Cc1cccc(-c2c[nH]c3ncnc(N4CCOCC4)c23)c1
% of inhibition [1]: 21%

CC[C@@H]1[C@H](F)C(=O)N[C@@H]1COc1nccc2cc(C(N)=O)c(OC)cc12 [ZIMLOVISERTIB]
% of inhibition [2]: -14.1% | % of inhibition ([3]; at 0.01 µM): -7% | % of inhibition ([3]; at 0.04 µM): -38.7% | % of inhibition ([3]; at 0.2 µM): -5.5% | % of inhibition ([3]; at 1 µM): -14.3% | % of inhibition ([3]; at 5 µM): -6.5%

COc1cc(N(C)c2ccnc3ccc(C(F)(F)F)cc23)cc(OC)c1OC
% binding [4]: 100%
